This is an account of results in patent US12421232B2, “Kinase inhibitor compounds and compositions and methods of use” (ICAHN SCHOOL OF MEDICINE AT MOUNT SINAI, priority 2018, dated 2025).

Common to all, as to assay: KINOMEscan Assay (DiscoverX)
Common to all, as to assay type: binding
Holding throughout (conditions): read-out: % DMSO Ctrl

One experiment concerns the target T1, CLK3 (Homo sapiens, UniProt P49761).
T1 construct: purchased DiscoverX

In a further experiment the target is T2, EGFR(G719C) (Homo sapiens, UniProt P00533, G719C).
T2 construct: purchased DiscoverX

The next experiment addresses T3, FLT3-autoinhibited (Homo sapiens, UniProt P36888).
T3 construct: purchased DiscoverX
T3 sequence (P36888 564-993 limits assumed): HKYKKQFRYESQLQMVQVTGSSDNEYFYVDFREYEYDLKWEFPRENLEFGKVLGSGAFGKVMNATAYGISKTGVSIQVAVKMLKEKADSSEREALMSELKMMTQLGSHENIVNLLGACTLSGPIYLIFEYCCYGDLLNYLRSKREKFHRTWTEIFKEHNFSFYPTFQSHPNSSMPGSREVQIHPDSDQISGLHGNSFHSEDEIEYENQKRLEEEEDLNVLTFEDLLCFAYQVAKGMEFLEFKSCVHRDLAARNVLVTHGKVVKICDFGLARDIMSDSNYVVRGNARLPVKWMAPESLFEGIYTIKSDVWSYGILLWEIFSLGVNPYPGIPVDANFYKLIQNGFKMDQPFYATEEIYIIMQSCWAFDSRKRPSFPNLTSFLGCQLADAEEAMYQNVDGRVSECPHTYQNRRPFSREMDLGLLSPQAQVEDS

Experiment [1] addresses T4, JAK3(JH1DOMAIN-CATALYTIC) (Homo sapiens, UniProt P52333).
T4 construct: JH1DOMAIN; purchased DiscoverX

Another experiment deals with T5, KIT (Homo sapiens, UniProt P10721).
T5 construct: purchased DiscoverX

The target in the next experiment is T6, MEK2 (Homo sapiens, UniProt P36507).
T6 construct: purchased DiscoverX

The next experiment deals with T7, PDGFRB (Homo sapiens, UniProt P09619).
T7 construct: purchased DiscoverX

A further experiment deals with T8, PIK3CA(I800L) (Homo sapiens, UniProt P42336, I800L).
T8 construct: purchased DiscoverX

The target in a further experiment is T9, PIM3 (Homo sapiens, UniProt Q86V86).
T9 construct: purchased DiscoverX

Another experiment has as its target T10, SGK (Homo sapiens, UniProt O00141).
T10 construct: purchased DiscoverX
T10 sequence (O00141 1-431): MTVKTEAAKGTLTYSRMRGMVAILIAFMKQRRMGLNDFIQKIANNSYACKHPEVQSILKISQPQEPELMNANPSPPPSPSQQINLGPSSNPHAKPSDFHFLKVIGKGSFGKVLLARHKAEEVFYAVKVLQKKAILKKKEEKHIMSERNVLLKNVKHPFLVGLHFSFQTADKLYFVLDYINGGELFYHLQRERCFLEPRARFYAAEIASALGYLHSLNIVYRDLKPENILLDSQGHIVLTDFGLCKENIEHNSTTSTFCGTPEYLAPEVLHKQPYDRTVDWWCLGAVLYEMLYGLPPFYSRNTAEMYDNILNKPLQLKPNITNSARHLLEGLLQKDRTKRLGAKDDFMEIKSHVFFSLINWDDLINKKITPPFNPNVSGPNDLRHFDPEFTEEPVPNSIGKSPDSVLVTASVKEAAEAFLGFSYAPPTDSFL

Experiment [2] has as its target T11, TYK2(JH1domain-catalytic) (Homo sapiens, UniProt P29597).
T11 construct: JH1domain; purchased DiscoverX
T11 sequence (P29597 897-1176 limits assumed): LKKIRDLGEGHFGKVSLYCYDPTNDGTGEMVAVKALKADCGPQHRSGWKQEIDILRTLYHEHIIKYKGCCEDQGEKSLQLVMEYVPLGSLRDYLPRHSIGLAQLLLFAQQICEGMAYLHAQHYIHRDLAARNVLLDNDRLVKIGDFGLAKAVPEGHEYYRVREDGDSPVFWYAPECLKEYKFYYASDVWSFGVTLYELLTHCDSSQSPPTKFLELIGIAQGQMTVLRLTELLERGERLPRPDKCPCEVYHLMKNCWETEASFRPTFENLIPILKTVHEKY

A further experiment deals with T12, CSNK1G2 (Homo sapiens, UniProt P78368).
T12 construct: purchased DiscoverX

Another experiment addresses T13, DYRK1B (Homo sapiens, UniProt Q9Y463).
T13 construct: purchased DiscoverX

For a further experiment, the target named is T14, HIPK2 (Homo sapiens, UniProt Q9H2X6).
T14 construct: purchased DiscoverX

A further experiment has as its target T15, IRAK1 (Homo sapiens, UniProt P51617).
T15 construct: purchased DiscoverX

The next experiment concerns the target T16, PIK4CB (Homo sapiens, UniProt Q9UBF8).
T16 construct: purchased DiscoverX

Molecules are shown by their SMILES. Read-outs that look alike come from different tables or passages of the source.

T4 sequence (P52333 822-1111 limits assumed): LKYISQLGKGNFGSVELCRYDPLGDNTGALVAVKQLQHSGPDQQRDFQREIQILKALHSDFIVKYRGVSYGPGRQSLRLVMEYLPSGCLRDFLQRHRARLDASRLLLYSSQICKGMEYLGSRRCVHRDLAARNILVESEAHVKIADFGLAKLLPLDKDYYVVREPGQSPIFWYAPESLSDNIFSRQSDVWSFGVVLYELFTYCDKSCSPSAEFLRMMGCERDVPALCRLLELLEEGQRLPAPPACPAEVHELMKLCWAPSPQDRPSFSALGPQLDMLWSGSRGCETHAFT
T5 sequence (P10721 26-976): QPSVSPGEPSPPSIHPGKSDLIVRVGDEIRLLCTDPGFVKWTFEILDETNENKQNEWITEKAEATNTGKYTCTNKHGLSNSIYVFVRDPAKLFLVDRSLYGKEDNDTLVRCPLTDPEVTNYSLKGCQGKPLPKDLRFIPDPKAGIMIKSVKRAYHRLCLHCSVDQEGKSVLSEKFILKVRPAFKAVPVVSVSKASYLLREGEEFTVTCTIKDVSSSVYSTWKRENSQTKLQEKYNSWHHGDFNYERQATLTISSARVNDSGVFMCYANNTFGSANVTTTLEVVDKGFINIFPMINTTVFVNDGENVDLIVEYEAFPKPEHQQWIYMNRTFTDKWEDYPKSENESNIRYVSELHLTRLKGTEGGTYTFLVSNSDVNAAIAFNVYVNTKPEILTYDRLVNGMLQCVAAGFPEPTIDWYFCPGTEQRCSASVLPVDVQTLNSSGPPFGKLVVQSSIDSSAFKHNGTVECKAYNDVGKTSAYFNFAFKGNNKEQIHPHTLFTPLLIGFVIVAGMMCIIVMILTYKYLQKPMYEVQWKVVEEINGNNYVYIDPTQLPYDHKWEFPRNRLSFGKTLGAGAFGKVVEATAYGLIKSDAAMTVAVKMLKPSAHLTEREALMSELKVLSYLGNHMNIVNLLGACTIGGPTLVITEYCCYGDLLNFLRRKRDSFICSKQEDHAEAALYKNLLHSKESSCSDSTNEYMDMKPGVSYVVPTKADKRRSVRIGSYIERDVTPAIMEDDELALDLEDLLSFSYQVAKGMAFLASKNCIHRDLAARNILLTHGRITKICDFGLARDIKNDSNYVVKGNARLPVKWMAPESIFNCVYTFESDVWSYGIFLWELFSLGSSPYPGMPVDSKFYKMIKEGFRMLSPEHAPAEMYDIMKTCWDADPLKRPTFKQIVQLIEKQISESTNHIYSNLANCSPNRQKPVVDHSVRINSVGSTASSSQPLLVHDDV
T7 sequence (P09619 33-1106): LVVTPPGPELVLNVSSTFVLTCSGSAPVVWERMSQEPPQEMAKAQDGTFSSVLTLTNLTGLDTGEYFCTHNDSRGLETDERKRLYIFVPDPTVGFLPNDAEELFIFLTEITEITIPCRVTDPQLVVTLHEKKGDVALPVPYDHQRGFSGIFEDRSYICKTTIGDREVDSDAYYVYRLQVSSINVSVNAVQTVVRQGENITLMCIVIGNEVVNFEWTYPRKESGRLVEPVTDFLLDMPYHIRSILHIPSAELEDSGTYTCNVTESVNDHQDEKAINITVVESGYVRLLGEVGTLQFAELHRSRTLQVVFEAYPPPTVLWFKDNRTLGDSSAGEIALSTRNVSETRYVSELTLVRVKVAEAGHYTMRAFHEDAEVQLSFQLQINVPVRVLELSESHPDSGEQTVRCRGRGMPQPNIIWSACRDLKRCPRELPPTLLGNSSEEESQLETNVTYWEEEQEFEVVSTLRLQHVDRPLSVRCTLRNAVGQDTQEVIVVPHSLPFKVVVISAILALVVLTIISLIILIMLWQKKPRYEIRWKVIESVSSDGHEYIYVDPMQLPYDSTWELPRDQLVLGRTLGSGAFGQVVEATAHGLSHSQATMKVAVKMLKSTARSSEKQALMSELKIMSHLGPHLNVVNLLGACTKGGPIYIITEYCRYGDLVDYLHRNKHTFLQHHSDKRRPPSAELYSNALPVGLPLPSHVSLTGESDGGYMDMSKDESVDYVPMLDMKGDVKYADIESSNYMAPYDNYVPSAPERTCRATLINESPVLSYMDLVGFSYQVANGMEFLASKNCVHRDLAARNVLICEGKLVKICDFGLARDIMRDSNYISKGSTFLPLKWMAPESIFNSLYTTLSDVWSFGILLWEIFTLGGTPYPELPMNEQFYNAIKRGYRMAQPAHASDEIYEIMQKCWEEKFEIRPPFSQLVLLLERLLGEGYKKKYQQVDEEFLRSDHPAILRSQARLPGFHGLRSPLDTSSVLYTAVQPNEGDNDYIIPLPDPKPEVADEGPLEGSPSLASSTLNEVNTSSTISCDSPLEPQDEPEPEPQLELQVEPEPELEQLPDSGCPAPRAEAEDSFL
T2 sequence (P00533 25-1210 G719C): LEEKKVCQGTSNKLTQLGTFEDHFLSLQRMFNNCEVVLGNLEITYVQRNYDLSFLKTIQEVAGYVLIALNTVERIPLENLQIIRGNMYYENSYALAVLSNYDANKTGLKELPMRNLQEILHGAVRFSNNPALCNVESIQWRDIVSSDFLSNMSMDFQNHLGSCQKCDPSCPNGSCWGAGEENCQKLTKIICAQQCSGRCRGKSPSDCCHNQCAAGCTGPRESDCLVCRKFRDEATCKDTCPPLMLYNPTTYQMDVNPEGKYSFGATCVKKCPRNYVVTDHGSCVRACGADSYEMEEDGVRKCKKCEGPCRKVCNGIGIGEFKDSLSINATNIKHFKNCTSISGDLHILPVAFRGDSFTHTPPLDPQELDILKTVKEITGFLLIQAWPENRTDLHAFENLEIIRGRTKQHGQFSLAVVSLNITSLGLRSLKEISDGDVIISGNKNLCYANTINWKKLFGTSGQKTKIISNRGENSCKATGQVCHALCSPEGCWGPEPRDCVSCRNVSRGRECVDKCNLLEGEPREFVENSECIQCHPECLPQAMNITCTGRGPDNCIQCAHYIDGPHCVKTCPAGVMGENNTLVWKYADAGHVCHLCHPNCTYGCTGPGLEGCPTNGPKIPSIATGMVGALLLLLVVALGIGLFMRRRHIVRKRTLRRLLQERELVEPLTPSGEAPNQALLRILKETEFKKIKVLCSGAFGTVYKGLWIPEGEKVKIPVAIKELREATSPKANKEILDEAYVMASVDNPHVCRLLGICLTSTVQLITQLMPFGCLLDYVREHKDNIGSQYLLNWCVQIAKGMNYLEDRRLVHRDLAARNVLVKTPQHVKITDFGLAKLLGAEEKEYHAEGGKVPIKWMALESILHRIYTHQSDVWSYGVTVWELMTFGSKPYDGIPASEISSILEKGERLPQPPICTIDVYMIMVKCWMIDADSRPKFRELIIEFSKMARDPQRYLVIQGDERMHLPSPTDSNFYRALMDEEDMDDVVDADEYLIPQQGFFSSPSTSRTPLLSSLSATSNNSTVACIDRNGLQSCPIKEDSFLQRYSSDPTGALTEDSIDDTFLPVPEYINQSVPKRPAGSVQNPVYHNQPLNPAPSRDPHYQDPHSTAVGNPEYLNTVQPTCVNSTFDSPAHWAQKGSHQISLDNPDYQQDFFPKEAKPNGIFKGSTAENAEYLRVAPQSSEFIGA
T12 sequence (P78368 whole entry): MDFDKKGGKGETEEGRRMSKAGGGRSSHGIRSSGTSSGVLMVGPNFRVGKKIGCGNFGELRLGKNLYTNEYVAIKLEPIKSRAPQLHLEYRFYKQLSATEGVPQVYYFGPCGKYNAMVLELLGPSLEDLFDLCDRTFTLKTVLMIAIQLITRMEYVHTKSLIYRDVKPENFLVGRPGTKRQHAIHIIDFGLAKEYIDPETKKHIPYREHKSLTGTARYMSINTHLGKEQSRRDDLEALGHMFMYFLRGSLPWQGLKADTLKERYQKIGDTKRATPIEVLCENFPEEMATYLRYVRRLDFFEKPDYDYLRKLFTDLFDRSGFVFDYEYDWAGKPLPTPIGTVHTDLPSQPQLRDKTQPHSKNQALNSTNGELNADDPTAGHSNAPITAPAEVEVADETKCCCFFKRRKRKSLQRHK
T16 sequence (Q9UBF8 whole entry): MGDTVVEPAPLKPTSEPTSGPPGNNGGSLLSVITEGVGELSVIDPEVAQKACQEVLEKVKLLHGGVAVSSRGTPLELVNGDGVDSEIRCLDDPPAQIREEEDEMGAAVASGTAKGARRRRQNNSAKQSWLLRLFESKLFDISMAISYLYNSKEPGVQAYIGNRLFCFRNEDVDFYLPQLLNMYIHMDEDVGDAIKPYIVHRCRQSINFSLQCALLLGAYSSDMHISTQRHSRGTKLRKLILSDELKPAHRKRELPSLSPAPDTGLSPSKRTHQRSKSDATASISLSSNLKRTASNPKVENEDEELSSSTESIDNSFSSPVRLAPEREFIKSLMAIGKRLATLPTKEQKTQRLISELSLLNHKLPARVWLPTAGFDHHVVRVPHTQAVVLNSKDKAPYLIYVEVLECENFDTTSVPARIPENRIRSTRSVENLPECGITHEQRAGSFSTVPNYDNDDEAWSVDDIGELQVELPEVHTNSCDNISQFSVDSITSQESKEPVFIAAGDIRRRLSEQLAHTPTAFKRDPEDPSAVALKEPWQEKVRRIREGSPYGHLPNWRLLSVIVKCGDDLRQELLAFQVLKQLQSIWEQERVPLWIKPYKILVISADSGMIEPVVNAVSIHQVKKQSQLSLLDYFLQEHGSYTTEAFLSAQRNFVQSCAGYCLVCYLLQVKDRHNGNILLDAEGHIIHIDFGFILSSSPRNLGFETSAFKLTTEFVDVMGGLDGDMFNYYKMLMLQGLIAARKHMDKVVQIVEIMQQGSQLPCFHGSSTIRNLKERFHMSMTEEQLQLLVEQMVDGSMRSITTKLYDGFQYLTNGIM

Consider `COc1ccc2c(c1)[nH]c1c(C)nc(CO)cc12` [Compound 2-8, (1-Methyl-7-methoxy-9H-pyrido[3,4-b]indol-3-yl)methanol], for which the remaining binding at 10 µM was 36% at CLK3 (CLK3, 10 μM); 98% on EGFR(G719C) (EGFR(G719C) mutant, 10 μM); 100% on FLT3-autoinhibited (FLT3-autoinhibited, 10 μM); 96% in experiment [1] (JAK3(JH1DOMAIN-[…]), 10 μM); 98% at KIT (KIT, 10 μM); 100% on MEK2 (MEK2, 10 μM). The remaining binding at 10 µM at PDGFRB (PDGFRB, 10 μM) is 97%; on PIK3CA(I800L) (PIK3CA(I800L) mutant, 10 μM), 63%; on PIM3 (PIM3, 10 μM) it was 15%; on SGK (SGK, 10 μM) it was 31%; in experiment [2] (TYK2(JH1domain-catalytic), 10 μM), 64%.
`COc1ccc2c3ccnc(C)c3n(CCCc3noc(N)n3)c2c1` [Compound 20-13, 3-(3-(7-Methoxy-1-methyl-β-carbolin-9-yl)propyl)-5-amino-1,2,4-oxadiazole]: the remaining binding at 10 µM on CLK3 amounted to 54%; on CSNK1G2, 91%; at DYRK1B it was 1%; on EGFR(G719C), 93%; on FLT3-autoinhibited, 85%; on HIPK2 it was 2.3%. Besides, the remaining binding at 10 µM on IRAK1 amounted to 58%; in experiment [1] it was 87%; at KIT, 100%; at MEK2, 0%; on PDGFRB, 100%; on PIK3CA(I800L), 10%. Besides, the remaining binding at 10 µM on PIK4CB worked out at 9.9%; at PIM3, 39%; on SGK, 90%; in [2], 17%.
For `C#CCn1c2cc(OC)ccc2c2ccnc(C)c21` [Compound 20-23a, 3-(7-Methoxy-1-methyl-β-carbolin-9-yl)-propan-1-yne], the remaining binding at 10 µM at CLK3 is 19%; at CSNK1G2 (CSNK1G2, 10 μM), 56%; on DYRK1B (DYRK1B, 10 μM) it was 1.1%; on EGFR(G719C) it was 92%; at FLT3-autoinhibited, 100%; at HIPK2 (HIPK2, 10 μM) it was 71%. Moreover, the remaining binding at 10 µM at IRAK1 (IRAK1, 10 μM) was 42%; in experiment [1] (JAK3(JH1DOMAIN-[…]), 10 μM), 100%; on KIT, 83%; on MEK2 it was 96%; at PDGFRB it was 77%; at PIK3CA(I800L), 73%. In addition, the remaining binding at 10 µM turned out to be 0% on PIK4CB (PIK4CB, 10 μM); 32% at PIM3 (PIM3, 10 μM); 63% on SGK; 91% in experiment [2].
Turning to `COc1ccc2c(c1)[nH]c1c(C)nccc12` [Harmine, reference compound], the remaining binding at 10 µM on CSNK1G2 was 19%; on DYRK1B it was 6.1%; on HIPK2 it was 8.6%; at IRAK1 it was 17%; in experiment [1] it was 61%; at PIK4CB, 12%. The remaining binding at 10 µM on PIM3 is 43%.
